Data on 4 compounds can be found in ChEMBL document CHEMBL1782000, “Thiazole-based chalcones as potent antimicrobial agents. Synthesis and biological evaluation” (2011).

SMILES strings stand for the structures. ≈ marks a conversion by molar mass, not a printed value.

The subject of test [1] is Aspergillus ochraceus. Put plainly: Antifungal activity against Aspergillus ochraceus ATCC 12066 after 72 hrs by serial dilution method. It is filed as functional. To be noted: ATCC 12066, 72 h.
In test [2] the test system is Aspergillus versicolor. Nature of the test: Antifungal activity against Aspergillus versicolor ATCC 11730 after 72 hrs by serial dilution method. It is filed as functional. To be noted: ATCC 11730, 72 h.
Test [3] has as its system Aspergillus niger. Put plainly: Antifungal activity against Aspergillus niger ATCC 6275 after 72 hrs by serial dilution method. To be noted: ATCC 6275, 72 h. It counts as functional.
The test system of test [4] is Aspergillus fumigatus. Nature of the test: Antifungal activity against Aspergillus fumigatus plant isolate after 72 hrs by serial dilution method. It is filed as functional.
Test [5] deals with Trichoderma viride. Put plainly: Antifungal activity against Trichoderma viride IAM 5061 after 72 hrs by serial dilution method. It is filed as functional. Particulars: IAM 5061, 72 h.
The subject of test [6] is Penicillium ochrochloron. Put plainly: Antifungal activity against Penicillium ochrochloron ATCC 9112 after 72 hrs by serial dilution method. It is filed as functional. Particulars: ATCC 9112, 72 h.
Test [7] relates to Talaromyces funiculosus. Put plainly: Antifungal activity against Penicillium funiculosum ATCC 36839 after 72 hrs by serial dilution method. It counts as functional. Particulars: ATCC 36839, 72 h.
The nature of test [8]: Antifungal activity against Fusarium sporotrichioides IMT 496 after 72 hrs by serial dilution method. It is filed as functional.
Test [9] has as its system Aspergillus ochraceus. Put plainly: Fungicidal activity against Aspergillus ochraceus ATCC 12066 after 72 hrs. It counts as functional. To be noted: ATCC 12066, 72 h.
Test [10] relates to Aspergillus versicolor. Nature of the test: Fungicidal activity against Aspergillus versicolor ATCC 11730 after 72 hrs. It counts as functional. To be noted: ATCC 11730, 72 h.
In test [11] the test system is Aspergillus niger. Put plainly: Fungicidal activity against Aspergillus niger ATCC 6275 after 72 hrs. It counts as functional. Particulars: ATCC 6275, 72 h.
Test [12] deals with Aspergillus fumigatus. Nature of the test: Fungicidal activity against Aspergillus fumigatus plant isolate after 72 hrs. It is filed as functional.
The subject of test [13] is Trichoderma viride. Put plainly: Fungicidal activity against Trichoderma viride IAM 5061 after 72 hrs. It counts as functional. Particulars: IAM 5061, 72 h.
Test [14] deals with Penicillium ochrochloron. Put plainly: Fungicidal activity against Penicillium ochrochloron ATCC 9112 after 72 hrs. It is filed as functional. Particulars: ATCC 9112, 72 h.
Test [15] concerns Talaromyces funiculosus. Put plainly: Fungicidal activity against Penicillium funiculosum ATCC 36839 after 72 hrs. It is filed as functional. To be noted: ATCC 36839, 72 h.
The subject of test [16] is Fusarium sporotrichioides. Put plainly: Fungicidal activity against Fusarium sporotrichioides IMT 496 after 72 hrs. It is filed as functional. To be noted: IMT 496, 72 h.
For test [17], the system named is Staphylococcus aureus. Put plainly: Antibacterial activity against Staphylococcus aureus ATCC 6538 after 24 hrs by microdilution method. It counts as functional. To be noted: ATCC 6538, 24 h. Background: Broth dilution looks for growth in wells or tubes with falling amounts of substance.
The test system of test [18] is Bacillus cereus. Nature of the test: Antibacterial activity against Bacillus cereus clinical isolate after 24 hrs by microdilution method. It is filed as functional.
The subject of test [19] is Micrococcus flavus. Put plainly: Antibacterial activity against Micrococcus flavus ATCC 10240 after 24 hrs by microdilution method. It is filed as functional. To be noted: ATCC 10240, 24 h.
For test [20], the system named is Listeria monocytogenes. Put plainly: Antibacterial activity against Listeria monocytogenes NCTC 7973 after 24 hrs by microdilution method. Particulars: NCTC 7973, 24 h. It counts as functional.
The subject of test [21] is Pseudomonas aeruginosa. Nature of the test: Antibacterial activity against Pseudomonas aeruginosa ATCC 27853 after 24 hrs by microdilution method. It is filed as functional. Particulars: ATCC 27853, 24 h.
Test [22] relates to Salmonella typhimurium. Put plainly: Antibacterial activity against Salmonella Typhimurium ATCC 13311 after 24 hrs by microdilution method. Particulars: Salmonella enterica, ATCC 13311, 24 h. It is filed as functional, Salmonella enterica subsp. enterica serovar Typhimurium.
The test system of test [23] is Escherichia coli. Put plainly: Antibacterial activity against Escherichia coli ATCC 35210 after 24 hrs by microdilution method. It counts as functional. Particulars: ATCC 35210, 24 h.
The test system of test [24] is Enterococcus faecalis. Put plainly: Antibacterial activity against Enterococcus faecalis isolate obtained from human after 24 hrs by microdilution method. It is filed as functional.
Test [25] relates to Staphylococcus aureus. Put plainly: Bactericidal activity against Staphylococcus aureus ATCC 6538 after 24 hrs. Particulars: ATCC 6538, 24 h. It is filed as functional.
For test [26], the system named is Bacillus cereus. Put plainly: Bactericidal activity against Bacillus cereus clinical isolate after 24 hrs. It counts as functional.
The subject of test [27] is Micrococcus flavus. Nature of the test: Bactericidal activity against Micrococcus flavus ATCC 10240 after 24 hrs. It is filed as functional. To be noted: ATCC 10240, 24 h.
The subject of test [28] is Listeria monocytogenes. Nature of the test: Bactericidal activity against Listeria monocytogenes NCTC 7973 after 24 hrs. It counts as functional. To be noted: NCTC 7973, 24 h.
Test [29] concerns Pseudomonas aeruginosa. Nature of the test: Bactericidal activity against Pseudomonas aeruginosa ATCC 27853 after 24 hrs. It counts as functional. Particulars: ATCC 27853, 24 h.
The test system of test [30] is Salmonella typhimurium. Nature of the test: Bactericidal activity against Salmonella Typhimurium ATCC 13311 after 24 hrs. It is filed as functional, Salmonella enterica subsp. enterica serovar Typhimurium. To be noted: Salmonella enterica, ATCC 13311, 24 h.
Test [31] relates to Escherichia coli. Put plainly: Bactericidal activity against Escherichia coli ATCC 35210 after 24 hrs. Particulars: ATCC 35210, 24 h. It is filed as functional.
In test [32] the test system is Enterococcus faecalis. Nature of the test: Bactericidal activity against Enterococcus faecalis isolate obtained from human after 24 hrs. It is filed as functional.

Turning to `c1ccc(-c2ccc(C(c3ccccc3)n3ccnc3)cc2)cc1` (centres undefined) [BIFONAZOLE], the MIC (commonly the lowest concentration that inhibits growth of the organism) in test [1] turned out to be 403 µM (≈ 125 µg/mL); in test [2], 25.1 µM (≈ 7.79 µg/mL); in [3] it was 50.3 µM (≈ 15.6 µg/mL); in [4], 3.2 µM (≈ 0.993 µg/mL); in [5], 806 µM (≈ 250 µg/mL); in test [6] it was 403 µM (≈ 125 µg/mL). This compound had a minimum inhibitory concentration (MIC) in test [7] of 1610 µM (≈ 500 µg/mL). Also, the MIC (10'-2 umol/ml) in test [8] stood at 8.06. The MFC (in general, the smallest concentration meeting the test's criterion for killing the fungus) in test [9] was 806 µM (≈ 250 µg/mL); in test [10], 1610 µM (≈ 500 µg/mL); in test [11], 201 µM (≈ 62.5 µg/mL); in [12] it was 61.2 µM (≈ 19 µg/mL); in test [13] it was 1610 µM (≈ 500 µg/mL); in [14] it was 1610 µM (≈ 500 µg/mL). Also, the MFC was found to be 2420 µM (≈ 750 µg/mL) in test [15] and 806 µM (≈ 250 µg/mL) in test [16].

Consider `CC(=O)N1CCN(c2ccc(OCC3COC(Cn4ccnc4)(c4ccc(Cl)cc4Cl)O3)cc2)CC1` (centres undefined) [KETOCONAZOLE], for which the MIC in [1] amounted to 47 µM (≈ 25 µg/mL); in test [2] it was 18.8 µM (≈ 9.99 µg/mL); in test [3], 282 µM (≈ 150 µg/mL); in test [4], 47 µM (≈ 25 µg/mL); in test [5] it was 94.2 µM (≈ 50.1 µg/mL); in test [6], 18.8 µM (≈ 9.99 µg/mL). Further, the lowest concentration to inhibit growth in test [7] (MIC) was 9.4 µM (≈ 5 µg/mL). The MIC (10'-2 umol/ml) in test [8] was 9.42. For the same compound, the MFC stood at 94.2 µM (≈ 50.1 µg/mL) in [9]; 47 µM (≈ 25 µg/mL) in test [10]; 470 µM (≈ 250 µg/mL) in test [11]; 94.2 µM (≈ 50.1 µg/mL) in [12]; 188 µM (≈ 99.9 µg/mL) in test [13]; 47 µM (≈ 25 µg/mL) in test [14]. Besides, the MFC in [15] is 18.8 µM (≈ 9.99 µg/mL); in test [16], 188 µM (≈ 99.9 µg/mL).

In the case of `CN[C@@H]1[C@H](O[C@H]2[C@H](O[C@H]3[C@H](O)[C@@H](O)[C@H](N=C(N)N)[C@@H](O)[C@@H]3N=C(N)N)O[C@@H](C)[C@]2(O)C=O)O[C@@H](CO)[C@H](O)[C@H]1O` [STREPTOMYCIN], the MIC in [17] is 17.1 µM (≈ 9.95 µg/mL); in test [18] it was 2 µM (≈ 1.16 µg/mL); in test [19], 2 µM (≈ 1.16 µg/mL); in test [20] it was 17.1 µM (≈ 9.95 µg/mL); in [21] it was 2 µM (≈ 1.16 µg/mL); in [22], 2 µM (≈ 1.16 µg/mL). Besides, the MIC was 8.6 µM (≈ 5 µg/mL) in test [23] and 4.3 µM (≈ 2.5 µg/mL) in [24]. For the same compound, the minimum bactericidal concentration (MBC) – broadly, the smallest concentration meeting the test's criterion for killing – in test [25] turned out to be 42.9 µM (≈ 24.9 µg/mL); in test [26], 4.3 µM (≈ 2.5 µg/mL); in [27] it was 4.3 µM (≈ 2.5 µg/mL); in test [28], 43 µM (≈ 25 µg/mL); in [29], 4.3 µM (≈ 2.5 µg/mL); in test [30], 4.3 µM (≈ 2.5 µg/mL). For the same compound, the values for the MBC in test [31] and in test [32] were 17.1 µM (≈ 9.95 µg/mL) and 8.6 µM (≈ 5 µg/mL), respectively.

In the case of `CC1(C)S[C@@H]2[C@H](NC(=O)[C@H](N)c3ccccc3)C(=O)N2[C@H]1C(=O)O` [AMPICILLIN], the MIC in [17], in test [18], in [19], in [20], in [21] and in [22] was 248 µM (≈ 86.6 µg/mL) in each case. Also, the MIC in test [23] and in test [24] was 248 µM (≈ 86.6 µg/mL) throughout. Further, the MBC in test [25], in [26], in test [27], in [28], in test [29] and in [30] was 372 µM (≈ 130 µg/mL) in each case. Also, the MBC in [31] and in test [32] was 372 µM (≈ 130 µg/mL) each time.
